Broadly, the ED50 is the midpoint of the dose-response relation.

In one data set the target is human NOP receptor (Homo sapiens, UniProt P41146). It is filed as biochemical. The conditions noted are these: percentage of stimulation of standard full agonist N/OFQ (100%).
Data set [1] deals with rhesus monkeys. Briefly: Warm water tail-withdrawal assay. The data set is classed as in vivo, rhesus monkeys (Macaca mulatta). The conditions noted are these: Macaca mulatta, sc, read-out: antinociception ED50.
In data set [2] the test system is rhesus monkeys. Briefly: Tolerance to antinociceptive effects after 4 weeks repeated administration. The settings on record: 2 injections daily for 4 weeks: morphine 1.8 mg/kg, AT-121 0.03 mg/kg.
The subject of data set [3] is rhesus monkeys. Briefly: Physiological responses by radio-telemetry. The data set is classed as in vivo, rhesus monkeys (Macaca mulatta). The conditions noted are these: 1 mg/kg i.m., single monkey.
In data set [4] the test system is rhesus monkeys. Also on record: species or system rhesus monkeys (Macaca mulatta). The conditions noted are these: rhesus monkey, in vivo.

Counter-ions that a name gives are not always drawn.

human NOP receptor, sequence (P41146 whole entry): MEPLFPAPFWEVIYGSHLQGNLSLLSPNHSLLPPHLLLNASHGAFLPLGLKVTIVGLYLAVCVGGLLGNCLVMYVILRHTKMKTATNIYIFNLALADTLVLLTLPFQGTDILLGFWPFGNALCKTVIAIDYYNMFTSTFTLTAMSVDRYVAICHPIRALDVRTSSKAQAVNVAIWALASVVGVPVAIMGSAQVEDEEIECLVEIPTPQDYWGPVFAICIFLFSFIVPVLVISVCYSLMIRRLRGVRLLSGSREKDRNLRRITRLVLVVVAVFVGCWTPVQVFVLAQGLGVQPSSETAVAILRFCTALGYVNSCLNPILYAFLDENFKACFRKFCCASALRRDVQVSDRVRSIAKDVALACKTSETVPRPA

`CN1CC[C@]23c4c5ccc(O)c4O[C@H]2[C@@H](O)C=C[C@H]3[C@H]1C5` [Morphine, Morphine sulfate]: at human NOP receptor, the “[35S]GTPγS NOP % Stim” value was found to be 5.4 ± 1%. In the data set on rhesus monkeys [1], the ED50 was 1 mg/kg. For the same compound, the “tolerance to antinociceptive effects” value in the data set with rhesus monkeys [2] was “decrease in antinociceptive effects”.
`CC(=O)Oc1ccc2c3c1O[C@H]1[C@@H](OC(C)=O)C=C[C@H]4[C@@H](C2)N(C)CC[C@@]341` [heroin, diamorphine HCl]: in the data set with rhesus monkeys [3], the respiratory depression entry is given as “caused respiratory depression” and the “time to respiratory depression” value is recorded as below 20 min.
For the compound `O=C1CC[C@@]2(O)[C@H]3Cc4ccc(O)c5c4[C@@]2(CCN3CC2CC2)[C@H]1O5` [naltrexone, naltrexone HCl], in the data set with rhesus monkeys [4], the “effect of pretreatment on reinforcing effects of oxycodone” value is recorded as “effectively attenuated the reinforcing effects of oxycodone”.
On the same count and under the same terms, the same measure for buprenorphine HCl: “effectively attenuated the reinforcing effects of oxycodone”.

The values above are taken from publication PMC6295194 (Science translational medicine, 2018).
